Among the data in ChEMBL document CHEMBL3507680, “University of Dundee, Gates Library screen for HepG2 cell viability” are cytotoxicity values, retold here.

Molecules are shown by their SMILES.

The nature of the data set: Human HepG2 cell viability assay in 384 well format. Type of data set: toxicity, cell-based. On the set-up: dose 125 nL, time 70.5 hour; concentration not given beside the values. The following applies: HepG2 cells, read-out: Inhibition.

Consider `Cc1cc(C)c(S(=O)(=O)Nc2c(C)nc(N(C)C)nc2C)cc1C`, for which the cytotoxicity at 70.5 h amounted to 7.13%.

Regarding `Cc1nc(N(C)C)nc(C)c1NS(=O)(=O)c1ccc(F)cc1F`, the cytotoxicity at 70.5 h is -2.45%.

For the molecule `Cc1ccc(S(=O)(=O)Nc2c(C)nc(N3CCCC3)nc2C)cc1`, the cytotoxicity at 70.5 h was -2.23%.

As to `Cc1nc(N2CCOCC2)nc(C)c1NS(=O)(=O)c1ccccc1`, the cytotoxicity at 70.5 h was -4.03%.

Turning to `CCS(=O)(=O)NCc1nc(C)cc(N2CCCC2)n1`, the cytotoxicity at 70.5 h turned out to be 19.2%.

Turning to `CCCS(=O)(=O)NCc1nc(C)cc(N2CCCC2)n1`, the cytotoxicity at 70.5 h was -5.66%.

`CCS(=O)(=O)NCc1nc(C)cc(N2CCOCC2)n1`: the cytotoxicity at 70.5 h was -6.72%.

Turning to `O=C(Cc1ccc(F)cc1)NCCNc1cc(N2CCCC2)cnn1`, the cytotoxicity at 70.5 h was determined as 30.6%.

Turning to `CCC(=O)N1CCN(c2cc(N(C)C)cnn2)CC1`, the cytotoxicity at 70.5 h is -10.5%.

In the case of `CC(C)C(=O)N1CCN(c2cc(N(C)C)cnn2)CC1`, the cytotoxicity at 70.5 h was -5.3%.

With `O=C(c1ccccn1)N1CCN(c2cnnc(N3CCCC3)c2)CC1`, the cytotoxicity at 70.5 h is -10.9%.

Consider `CCOc1ccc(S(=O)(=O)Nc2cnc(OC)nc2OC)cc1`, for which the cytotoxicity at 70.5 h amounted to 9.83%.

As for `COc1ncc(NS(=O)(=O)c2ccc(F)c(F)c2)c(OC)n1`, the cytotoxicity at 70.5 h is -1.82%.

Regarding `CC(C)(C)CC(=O)NCCn1ccc(-c2ccncc2)n1`, the cytotoxicity at 70.5 h was -15.2%.

Turning to `CC(=O)NCCn1ccc(-c2ccccn2)n1`, the cytotoxicity at 70.5 h was -2.73%.

For the molecule `O=C(NCCn1ccc(-c2ccccn2)n1)C1CCC1`, the cytotoxicity at 70.5 h was determined as 1.58%.

For the molecule `O=S(=O)(NCCn1ccc(-c2ccccn2)n1)C1CCCCC1`, the cytotoxicity at 70.5 h stood at 23.9%.

As for `Cn1nc(CNC(=O)c2ccc3c(c2)OCO3)c2c1CCOC2`, the cytotoxicity at 70.5 h came to 5.45%.

Turning to `Cn1nc(CNC(=O)c2ccc3nsnc3c2)c2c1CCOC2`, the cytotoxicity at 70.5 h was -4.6%.

Regarding `COc1cc(OC)cc(C(=O)NCc2nn(C)c3c2COCC3)c1`, the cytotoxicity at 70.5 h worked out at 0.999%.

In the case of `O=C(CC1CCC2(CC1)CCN(Cc1nccs1)CC2)N1CC=CC1`, the cytotoxicity at 70.5 h was -3.04%.

In the case of `Cc1ccnc(OC[C@]23COC[C@H]2CN(C(=O)C2=CCCCC2)C3)n1`, the cytotoxicity at 70.5 h was -11.5%.

With `Cc1ccnc(OC[C@]23COC[C@H]2CN(C(=O)c2ncccn2)C3)n1`, the cytotoxicity at 70.5 h came to 21.2%.

As to `Cc1ccnc(OC[C@]23COC[C@H]2CN(C(=O)c2cnccn2)C3)n1`, the cytotoxicity at 70.5 h came to 14.9%.

On to `COCc1ncn2c1CN(C(=O)Nc1cccc(OC)c1)CC2`, for which the cytotoxicity at 70.5 h was 19.8%.

In the case of `CC(=O)NCC(=O)N1CCC2(COCc3c(C)nc(N(C)C)nc32)C1` (centres undefined), the cytotoxicity at 70.5 h is -6.64%.

With `Cc1nc(N(C)C)nc2c1COCC21CCN(C(=O)NCC(C)C)C1` (centres undefined), the cytotoxicity at 70.5 h is -7.67%.

Consider `CN1C(Cn2cccn2)C[C@@H]2CN(Cc3cnn(C)c3)CC[C@@H]21` (some centres undefined), for which the cytotoxicity at 70.5 h was -11.7%.

Consider `CCOCc1ncn2c1CN(C(=O)Nc1ccccc1)CC2`, for which the cytotoxicity at 70.5 h is -15.7%.

`CCS(=O)(=O)N1C[C@H]2CN(Cc3cccc(F)c3)C(=O)[C@H]2C1`: the cytotoxicity at 70.5 h is -3.13%.

Consider `CN(C)c1ncc(-c2cc(C(=O)N3CCCC3)n(CC3CC3)c2)cn1`, for which the cytotoxicity at 70.5 h is -11%.

Turning to `CC(C)COCC1CN(Cc2ccoc2)Cc2ncn(C)c21` (centres undefined), the cytotoxicity at 70.5 h is 14%.

As to `CC(C)N(C)Cc1cnc2n1CCN(Cc1cccc(C#N)c1)C2`, the cytotoxicity at 70.5 h is -13.7%.

As to `Cc1ccc(N2CC[C@H]3OCC[C@@]3(C(=O)N3CCCC3)C2)nn1`, the cytotoxicity at 70.5 h was -9.8%.

In the case of `Cc1ccc(N2CC[C@H]3OCC[C@@]3(C(=O)NCC3CC3)C2)nn1`, the cytotoxicity at 70.5 h was -7.61%.

For `CCO[C@@H]1CCN(c2ccc(C)nn2)[C@@H]1Cc1cnn(C)c1`, the cytotoxicity at 70.5 h is -10.9%.

On to `O=C(Cc1ccccn1)N1C[C@@H](Oc2cccnc2)[C@H]2OCCC[C@H]21`, for which the cytotoxicity at 70.5 h is 28.2%.

On to `Cn1nccc1-c1ccc2nc(C3CCNCC3)nn2c1`, for which the cytotoxicity at 70.5 h turned out to be 10.5%.

With `O=C(Nc1cccc(Cl)c1)c1nn(C2CCS(=O)(=O)C2)c2c1CCCC2` (centres undefined), the cytotoxicity at 70.5 h was found to be 13.9%.

Turning to `COc1cccc(C2CC(=O)Nc3nc(N)sc32)c1OC` (centres undefined), the cytotoxicity at 70.5 h amounted to 12.4%.

In the case of `O=C(c1cc(-n2cccc2)ccc1Cl)N1CCC2(CC1)OCCO2`, the cytotoxicity at 70.5 h worked out at 2.22%.

In the case of `Cn1ncc2c1NC(=O)CC2c1ccccc1Cl` (centres undefined), the cytotoxicity at 70.5 h is -5.68%.

Turning to `CN(C(=O)Cn1nc(-c2ccc(F)cc2)ccc1=O)C1CCS(=O)(=O)C1` (centres undefined), the cytotoxicity at 70.5 h was -0.171%.

For `CCOC(=O)N1CCN(C(=O)CCn2ccc3c(OC)cccc32)CC1`, the cytotoxicity at 70.5 h was -9.78%.

In the case of `CN1CCN(c2nc(O)c3c(-c4ccccn4)ccnc3n2)CC1`, the cytotoxicity at 70.5 h was -3.01%.

With `O=C(COc1coc(CN2CCOCC2)cc1=O)c1ccc(Cl)cc1`, the cytotoxicity at 70.5 h is -9.03%.

On to `CC(C)CN1C[C@@H]2CN(C(=O)[C@H]3CCCO3)C[C@@H]2C1=O`, for which the cytotoxicity at 70.5 h is -14.1%.

Turning to `CCCC(=O)N1CCC2(CC1)CC(NC(C)=O)c1ccccc1O2` (centres undefined), the cytotoxicity at 70.5 h was -13.7%.

With `COCCN1C(=O)CCC12CCN(C(=O)NC(C)C)CC2`, the cytotoxicity at 70.5 h is -25.3%.

Take `Cc1ccc(C(=O)N2CCCC3(CCCC(=O)N3C)C2)cc1F` (centres undefined): the cytotoxicity at 70.5 h was -4.57%.

As for `CC(=O)N1CCN(c2ccc3ccc(C(=O)NC4CCCC4)cn23)CC1`, the cytotoxicity at 70.5 h was -14.6%.

Consider `O=C1CC2(CCCNC2)C(=O)N1Cc1ccccc1` (centres undefined), for which the cytotoxicity at 70.5 h amounted to 18.9%.

Consider `CN1CCc2c(C#N)c(NCCCN3CCOCC3)n3cnnc3c2C1`, for which the cytotoxicity at 70.5 h was -14.3%.

On to `Cc1ccc(CNC2CCc3[nH]c(=O)ccc3C2)cc1C` (centres undefined), for which the cytotoxicity at 70.5 h amounted to 2.24%.

Take `CNC(=O)CN1CC[C@H]2CN(C(=O)c3ccccc3F)C[C@H]2C1`: the cytotoxicity at 70.5 h is -2.12%.

In the case of `COCCN1CCC2(CC1)CC(c1cccnc1)CO2` (centres undefined), the cytotoxicity at 70.5 h is -4.14%.

`COCCn1cc2c(n1)C(CNCc1ccsc1)OCC2` (centres undefined): the cytotoxicity at 70.5 h is -14.8%.

Regarding `COCC1CC2(CCN(C(=O)c3ccccc3C)CC2)CN1C(C)C` (centres undefined), the cytotoxicity at 70.5 h was found to be 19.7%.

Take `Cc1ccc(CN2CCC3(C2)C(=O)N(CC2CC2)c2ccccc23)s1` (centres undefined): the cytotoxicity at 70.5 h is -8.57%.

As to `CC(C)CN1C(=O)C2(CCN(Cc3cccs3)C2)c2ccccc21` (centres undefined), the cytotoxicity at 70.5 h was -16.4%.

On to `CC(C)CN1C(=O)C2(CCN(Cc3ccoc3)C2)c2ccccc21` (centres undefined), for which the cytotoxicity at 70.5 h was -14.2%.

In the case of `CC(C)N(C)Cc1cnc2n1CCN(S(=O)(=O)c1ccccc1)C2`, the cytotoxicity at 70.5 h turned out to be 15.9%.

For the molecule `COCC1CC2(CCN(C(=O)c3ccco3)CC2)CN1C(C)C` (centres undefined), the cytotoxicity at 70.5 h is -13%.

As for `CCS(=O)(=O)N1CCO[C@H]2[C@H](Oc3ncccc3F)CC[C@@H]21`, the cytotoxicity at 70.5 h is -11.9%.

On to `COCCN1C(=O)[C@]2(CC[C@@H]3CN(Cc4ccccc4F)C[C@@H]32)N=C1C`, for which the cytotoxicity at 70.5 h is -9.72%.

Regarding `CC1=N[C@@]2(CC[C@@H]3CN(CC4CC4)C[C@@H]32)C(=O)N1CC1CC1`, the cytotoxicity at 70.5 h is -13.6%.

For `CC1=N[C@@]2(CC[C@@H]3CN(Cc4cccc(Cl)c4)C[C@@H]32)C(=O)N1CC1CC1`, the cytotoxicity at 70.5 h is -14.9%.

As to `CC(=O)N1CC(=O)N(c2ccccc2)CC12CCN(Cc1ccoc1)C2` (centres undefined), the cytotoxicity at 70.5 h is -14.4%.

Consider `CC(C)CN1CC[C@@H]2[C@H](CC1)N(S(C)(=O)=O)CCS2(=O)=O`, for which the cytotoxicity at 70.5 h is -11.1%.

With `CC(=O)N1CC(=O)N(c2cnn(C)c2)CC12CCN(Cc1cccs1)C2` (centres undefined), the cytotoxicity at 70.5 h is -9.86%.

`O=C(N[C@H]1CN(Cc2ccsc2)[C@@H]2CCCO[C@H]12)C1CC1`: the cytotoxicity at 70.5 h was -11.3%.

As for `COCC1Cn2nnc(-c3cnn(C)c3)c2CN1Cc1ccsc1` (centres undefined), the cytotoxicity at 70.5 h was -9.05%.

Consider `CC1CCN(C(=O)[C@H]2CC[C@@H]3[C@@H](CCN3Cc3nccs3)O2)CC1`, for which the cytotoxicity at 70.5 h was found to be 25.3%.

As to `Cc1nc(CN2CC[C@H]3[C@@H]2CCC(=O)N3c2cnn(C)c2)cs1`, the cytotoxicity at 70.5 h is 13.5%.

Take `c1cnc(N2Cc3nccn3CC(COc3cccnc3)C2)nc1` (centres undefined): the cytotoxicity at 70.5 h was -8.37%.

`CN1C(=O)C(c2ccccc2)CC12CCN(CCO)CC2` (centres undefined): the cytotoxicity at 70.5 h was -14.6%.

As to `CN(C)C[C@@H]1C[C@@H]2CN(C(=O)c3ccoc3)CC[C@@H]2N1CC1CC1`, the cytotoxicity at 70.5 h is 24%.

Turning to `O=C1C[C@H]2[C@H](CCN2Cc2ccccn2)N1CC1CC1`, the cytotoxicity at 70.5 h is -15.8%.

As for `O=C(c1ccc(F)cc1)N1CCC2(CCCN2CC2CC2)CC1`, the cytotoxicity at 70.5 h is -14%.

On to `CC(C)NC(=O)CC1COC2(CCN(Cc3cccs3)CC2)C1` (centres undefined), for which the cytotoxicity at 70.5 h was -20.6%.

As for `CO[C@@H]1CCN(C(=O)c2ccccn2)[C@H]1Cc1ccccc1`, the cytotoxicity at 70.5 h is -16.2%.

With `CC(C)CC(=O)N1CC[C@@H]2[C@H](CC1)N(Cc1cccnc1)CCS2(=O)=O`, the cytotoxicity at 70.5 h was determined as 3.17%.

With `CC(C)C(=O)N1CC[C@@H]2[C@H](CC1)N(Cc1cccnc1)CCS2(=O)=O`, the cytotoxicity at 70.5 h amounted to 2.07%.

On to `O=C(CC1CCC2(CC1)CCN(Cc1cccnc1)CC2)N1CC=CC1`, for which the cytotoxicity at 70.5 h is -8.62%.

Consider `Fc1ccc(CN2CCC(F)(F)C3(CCN(c4cnccn4)C3)C2)cc1` (centres undefined), for which the cytotoxicity at 70.5 h is -9.88%.

For `CC(C)N(C)Cc1cnc2n1CCN(C(=O)Cc1ccccn1)C2`, the cytotoxicity at 70.5 h is 13.5%.

With `Cn1cc(CN2CCC(F)(F)C3(CCN(c4ncccn4)C3)C2)cn1` (centres undefined), the cytotoxicity at 70.5 h was -12.2%.

As to `CC(C)N(C)Cc1cnc2n1CCN(Cc1cccc(F)c1)C2`, the cytotoxicity at 70.5 h is -4.8%.

With `CNC(=O)CN1CCOCC2(CCCN(Cc3ccsc3)C2)C1` (centres undefined), the cytotoxicity at 70.5 h was -19.5%.

For `CCN1CCn2c(C)cnc2C12CCN(C(=O)N(C)C)CC2`, the cytotoxicity at 70.5 h is -9.01%.

Take `CCN1CCn2c(C)cnc2C12CCN(C(=O)c1cscn1)CC2`: the cytotoxicity at 70.5 h was determined as 4.22%.

Consider `Cn1cc(N2C(=O)CC[C@@H]3[C@H]2CCN3Cc2cccc(C#N)c2)cn1`, for which the cytotoxicity at 70.5 h was -13.2%.

`O=C1CC[C@H]2[C@H](CCN2Cc2ccccn2)N1CC1CCOCC1`: the cytotoxicity at 70.5 h was -6.68%.

As to `Cc1nc(CN2CCC3(CCCN(Cc4ccncc4)C3)C2=O)cs1` (centres undefined), the cytotoxicity at 70.5 h is -11.1%.
